Reference: paper PMC8617627, “Novel DYRK1A Inhibitor Rescues Learning and Memory Deficits in a Mouse Model of Down Syndrome” (Pharmaceuticals, 2021)
Several values for one entry are separate records, joined by “and”; a condition that tells them apart may be missing. Equal values may be shown once.

Experiments:
[1] = Mouse PO pharmacokinetics (plasma and brain); format: in vivo; conditions: for Tmax: po
Procedure: For determining plasma and brain pharmacokinetics blood samples (via cardiac puncture into heparinized tubes and centrifuged for plasma at 4 °C) and brains were terminally sampled at 0.25, 0.5, 1, 2, 3, 4, 6, and 8 h timepoints post dosing. Three animals per timepoint were sampled. The three animals designated for the 8 h timepoint were housed in a metabolism cage post-dosing for collection of urine. All samples were stored at −20 °C pending analysis. Bioanalysis was carried out by UHPLC-TOF mass spectrometry using electrospray ionization against matrix matched calibration lines.
The pharmacokinetic parameters were subsequently calculated by noncompartmental methods.
(§1) Samples are prepared by protein precipitation and/or dilution: tissues are homogenized first. Analysis is carried out using a generic internal standard, with matrix-matched calibration standards bracketing the study samples.
(§2) Samples were analyzed by high resolution accurate mass UHPLC-TOF MS. […] The mass spectrometer was operated in full scan mode, with positive ion electrospray data acquired over the m/z mass range 100–1000.

Rat IV pharmacokinetics = format: in vivo; conditions: plasma
Procedure: For determining plasma pharmacokinetics blood samples (via cardiac puncture into heparinized tubes and centrifuged for plasma at 4 °C) were serially sampled via jugular vein at […], 0.5, 5, 15, and 30 min, 1, 2, 4, 8, and 24 h timepoints post dosing. Three animals per timepoint were sampled. All samples were stored at −20 °C pending analysis. Bioanalysis was carried out by UHPLC-TOF mass spectrometry using electrospray ionization against matrix matched calibration lines. The pharmacokinetic parameters were subsequently calculated by noncompartmental methods. Samples are prepared by protein precipitation and/or dilution: tissues are homogenized first. Analysis is carried out using a generic internal standard, with matrix-matched calibration standards bracketing the study samples. Samples were analyzed by high resolution accurate mass UHPLC-TOF MS. […] The mass spectrometer was operated in full scan mode, with positive ion electrospray data acquired over the m/z mass range 100–1000.

[2] = Steady state tissue levels after administration in animal food; format: in vivo, mouse
Text: The highest dose provided a continuous concentration of 1.25 μmol/g both in the liver and in the brain and was used in fear conditioning experiments.
Six control euploid mice of the same genetic background as the Ts65Dn mice were used to perform this analysis; two mice per dose and three doses tested.
Prior to contextual fear conditioning experiments, all mice were exposed for three-days to either food mixture alone or food mixture with added PST-001. In addition, the mice continued to consume these same food preparations during the two days necessary to perform the behavioral testing. […] Comparisons between group means were done with Two-way factorial ANOVA, and Fisher protected least significant difference (PLSD) post hoc test was performed for all significant ANOVA (using Statistica version 13, Tibco Software, Palo Alto, CA, USA).

[3] = Mouse microsome stability assay; format: in vitro ADME; conditions: microsomes
[4] = Mouse IV pharmacokinetics (plasma and brain); format: in vivo; conditions: for half-life: read-out: t½ (converted)
Procedure: as §1, with “In the mouse model, the PK-parameters were also determined in the brain samples. […] Samples” for “Samples”
as §2

139-protein kinase panel = test: Selectivity on protein kinase panel (GINI-index); conditions: in words
Procedure: The determination of protein kinase inhibition was performed at the International Centre for Kinase Profiling at the University of Dundee, UK. The method used is a radioactive filter binding assay using ^33P ATP as described in the literature [79]. The ATP concentrations were at or below the calculated Km for ATP for each particular kinase.

[5] = male, Sprague-Dawley, IV 1 mg/kg

Compound `COc1ccc2sc(-c3cncc(NC(C)=O)c3)nc2c1` [PST-001, N-(5-(5-Methoxybenzo[d]thiazol-2-yl)pyridin-3-yl)acetamide] has a Kp ([1]; male, C57BL/6, mouse, brain, 5 mg/kg, at Tmax after PO administration, read-out: brain level as share of the plasma level) of 0.5, a Tmax ([1]; male, C57BL/6, mouse, brain, 5 mg/kg, mouse, PO 5 mg/kg) of 15 min and a Tmax ([1]; male, C57BL/6, mouse, plasma, 5 mg/kg, PO administration) of 15 min. It also gave a Tmax ([1]; male, C57BL/6, mouse, plasma, 5 mg/kg, mouse, PO 5 mg/kg) of 60 min, a Cmax ([1]; male, C57BL/6, mouse, PO 5 mg/kg, brain) of 153 ng/mL and a half-life ([1]; male, C57BL/6, mouse, PO 5 mg/kg, brain, read-out: t½ (converted)) of 16.2 min. The Cmax ([1]; male, C57BL/6, mouse, PO 5 mg/kg, plasma) was 76 ng/mL, the AUCall ([1]; mouse, PO 5 mg/kg, brain) was 189 h ∗ ng/mL and the AUCall ([1]; mouse, PO 5 mg/kg, plasma) was 89 h ∗ ng/mL. The AUCall (Rat IV pharmacokinetics; IV 1 mg/kg) was 158 h ∗ ng/mL, the half-life (Rat IV pharmacokinetics; Sprague-Dawley (rat), C57BL/6 (mouse), intravenous, oral, mouse or rat, IV or PO, read-out: t1/2 in plasma) was less than 60 min and the Cmax (Rat IV pharmacokinetics; [5]) was 647 ng/mL. For the same compound, the Vd (Rat IV pharmacokinetics; [5]) was 2.39 L/kg, the clearance (Rat IV pharmacokinetics; [5]) was 105 mL/min/kg and the Tmax (Rat IV pharmacokinetics; male, Sprague-Dawley, iv, 1 mg/kg, IV 1 mg/kg, read-out: Tmax) was 1.8 min. It also gave a half-life (Rat IV pharmacokinetics; male, Sprague-Dawley, iv, 1 mg/kg, IV 1 mg/kg, read-out: t½ (converted)) of 43.2 min, a half-life (Rat IV pharmacokinetics; male, Sprague-Dawley, iv, 1 mg/kg, IV bolus 1 mg/kg, circulation, read-out: t½ (converted)) of 43 min and a Tmax (Rat IV pharmacokinetics; male, Sprague-Dawley, iv, 1 mg/kg, IV bolus 1 mg/kg, read-out: Time of maximum venous concentration (Tmax) (converted)) of 2 min. For the same compound, the “continuous (steady state) concentration in the brain” value ([2]; 100 mg PST-001/kg powdered food) was 1.25 µmol/g, the “steady state brain concentration” value ([2]; twice-a-day administration in the animal food of 10 mg/kg) was 150 ng/mL and the “steady state plasma level” value ([2]; twice-a-day administration in the animal food of 10 mg/kg, 10 mg/kg) was 76 ng/mL and 0.25 μM. The half-life ([3]; read-out: half-life (t½)) was 25 min, the microsomal CLint ([3]; read-out: intrinsic clearance, Cint) was 55 µL/min/mg and the Cmax ([4]; C57Bl, IV 1 mg/kg, brain) was 867 ng/mL. The Tmax ([4]; C57Bl, IV 1 mg/kg, brain) was 4.8 min, the half-life ([4]; C57Bl, IV 1 mg/kg, brain) was 9 min and the Cmax ([4]; C57Bl, IV 1 mg/kg, plasma) was 362 ng/mL. The Tmax ([4]; C57Bl, IV 1 mg/kg, plasma) was 4.8 min, the Vd ([4]; C57Bl, IV 1 mg/kg, plasma) was 1.39 L/kg and the clearance ([4]; C57Bl, IV 1 mg/kg, plasma) was 198 mL/min/kg. It also gave a half-life ([4]; C57Bl, IV 1 mg/kg, plasma) of 9 min, an AUCall ([4]; IV 1 mg/kg, brain) of 200 h ∗ ng/mL and an AUCall ([4]; IV 1 mg/kg, plasma) of 84 h ∗ ng/mL. The “Time of Cmax” value ([4]; IV bolus, plasma) was 5 min.

In the case of `COc1ccc2sc(-c3cncc(N)c3)nc2c1` [compound 1, 5-(5-Methoxybenzo[d]thiazol-2-yl)pyridin-3-amine], the “Selectivity in the protein kinase panel” value (139-protein kinase panel) is reported as “high selectivity towards DYRK1A”.
